The target in assay [1] is binding between Nrf2 and Keap1 (Homo sapiens (Human), UniProt Q14145). The assay is described as follows: FP assay (in vitro): inhibition of Nrf2-Keap1 binding by fluorescence polarization. The note with it: GST-fused human Keap1 (325-642) 20 nM, FITC-labeled Nrf2 peptide 10 nM, 2 hr at room temperature. (In general: In fluorescence polarisation assays a small probe gives low polarisation when free and higher when bound to something large.)

In assay [2] the test system is NQO1 activity in Hepa1c1c7 cells. The experiment in a line: NAD(P)H: quinone oxidoreductase-1 (NQO1) enzyme induction assay (in vitro). The class given is cell-based, mouse. The note with it: Mus musculus, Hepa-1c1c7, NQO1 activity with 400 nM test compound as a ratio from the base without compound, about 48 hr. An outline of the steps:
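Mouse Hepa1c1c7 hepatoma cells treated 48 hr with 400 nM compound (final). NQO1 activity in lysates read by absorbance at 610 nm; value is background-subtracted activity ratio versus untreated cells.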

Molecules are shown by their SMILES.

Sequence of binding between Nrf2 and Keap1 (Q14145 325-624 limits assumed): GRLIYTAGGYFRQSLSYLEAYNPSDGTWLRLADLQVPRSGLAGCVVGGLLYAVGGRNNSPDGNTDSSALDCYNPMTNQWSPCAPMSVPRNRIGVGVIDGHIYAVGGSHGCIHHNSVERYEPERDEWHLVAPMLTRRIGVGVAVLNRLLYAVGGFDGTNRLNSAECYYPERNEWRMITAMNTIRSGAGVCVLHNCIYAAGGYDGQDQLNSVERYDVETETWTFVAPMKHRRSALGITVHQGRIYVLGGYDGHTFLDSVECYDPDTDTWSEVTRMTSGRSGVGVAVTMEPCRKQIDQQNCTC

Turning to `CC[C@@H]1CN(Cc2cc(C(CC(=O)O)c3ccc4c(nnn4C)c3Cl)cc3c2CCC3)S(=O)(=O)c2cc(Cl)cnc2O1` (stereo partly drawn) [Example 29, 3-(7-{[(4R)-8-Chloro-4-ethyl-1,1-dioxido-3,4-dihydro-2H-pyrido[2,3-b][1,4,5]oxathiazepin-2-yl]methyl}-2,3-dihydro-1H-inden-5-yl)-3-(4-chloro-1-methyl-1H-benzotriazol-5-yl)propanoic acid], the IC50 (in general, the concentration that gives 50% inhibition) in assay [1] was no more than 10 nM. Further, the fold induction (as a rule, the signal under treatment as a multiple of the control signal) at 0.4 µM in assay [2] was greater than 5.
In the same order, the values of `CC[C@@H]1CN(Cc2cc([C@H](CC(=O)O)c3cc(Cl)c4c(nnn4C)c3C)cc3ccsc23)S(=O)(=O)c2cc(Cl)cnc2O1` [Example 30, (3S)-3-(7-Chloro-1,4-dimethyl-1H-benzotriazol-5-yl)-3-(7-{[(4R)-8-chloro-4-ethyl-1,1-dioxido-3,4-dihydro-2H-pyrido[2,3-b][1,4,5]oxathiazepin-2-yl]methyl}-1-benzothiophen-5-yl)propanoic acid] are no more than 10 nM and 3 to 5.
The like results for `CC[C@@H]1CN(Cc2cc([C@@H](CC(=O)O)c3cc(Cl)c4c(nnn4C)c3C)cc3ccsc23)S(=O)(=O)c2cc(Cl)cnc2O1` [Example 31, (3R)-3-(7-Chloro-1,4-dimethyl-1H-benzotriazol-5-yl)-3-(7-{[(4R)-8-chloro-4-ethyl-1,1-dioxido-3,4-dihydro-2H-pyrido[2,3-b][1,4,5]oxathiazepin-2-yl]methyl}-1-benzothiophen-5-yl)propanoic acid] were, in that order, no more than 10 nM and greater than 5.
In the same order, the values of `CC[C@@H]1CN(Cc2cc([C@@H](CC(=O)O)c3cc(OC(F)F)c4c(nnn4C)c3C)cc3ccsc23)S(=O)(=O)c2cc(Cl)cnc2O1` [Example 32, (3R)-3-(7-{[(4R)-8-Chloro-4-ethyl-1,1-dioxido-3,4-dihydro-2H-pyrido[2,3-b][1,4,5]oxathiazepin-2-yl]methyl}-1-benzothiophen-5-yl)-3-[7-(difluoromethoxy)-1,4-dimethyl-1H-benzotriazol-5-yl]propanoic acid] are no more than 10 nM and greater than 5.
Consider `Cc1c(C(CC(=O)O)c2cc3c(c(CN4CC(C)(C)Oc5ncccc5S4(=O)=O)c2)CCC3)ccc2c1nnn2C` (stereo not drawn) [Example 34, 3-(1,4-Dimethyl-1H-benzotriazol-5-yl)-3-{7-[(4,4-dimethyl-1,1-dioxido-3,4-dihydro-2H-pyrido[2,3-b][1,4,5]oxathiazepin-2-yl)methyl]-2,3-dihydro-1H-inden-5-yl}propanoic acid], for which the IC50 in assay [1] is 10 to 30 nM. Further, the fold induction at 0.4 µM in assay [2] is greater than 5.
On to `CC[C@@H]1CN(Cc2cc([C@@H](CC(=O)O)c3cc(C4CC4)c4c(nnn4C)c3C)cc3ccsc23)S(=O)(=O)c2cc(Cl)cnc2O1` [Example 37, (3R)-3-(7-{[(4R)-8-Chloro-4-ethyl-1,1-dioxido-3,4-dihydro-2H-pyrido[2,3-b][1,4,5]oxathiazepin-2-yl]methyl}-1-benzothiophen-5-yl)-3-(7-cyclopropyl-1,4-dimethyl-1H-benzotriazol-5-yl)propanoic acid], for which the concentration for half-maximal inhibition (IC50) in assay [1] is no more than 10 nM. Further, the fold induction at 0.4 µM in assay [2] is 3 to 5.
The like results for `CC[C@@H]1CN(Cc2cc([C@@H](c3ccc4c(nnn4C)c3C)C(C)(C)C(=O)O)cc3c2CCC3)S(=O)(=O)c2cc(Cl)cnc2O1` [Example 38, (3S)-3-(7-{[(4R)-8-Chloro-4-ethyl-1,1-dioxido-3,4-dihydro-2H-pyrido[2,3-b][1,4,5]oxathiazepin-2-yl]methyl}-2,3-dihydro-1H-inden-5-yl)-3-(1,4-dimethyl-1H-benzotriazol-5-yl)-2,2-dimethylpropanoic acid] were, in that order, no more than 10 nM and greater than 5.
The like results for `CC[C@@H]1CN(Cc2cc([C@@H](CC(=O)O)c3cc(C4CC4)c4c(nnn4C)c3C)cc3c2CCC3)S(=O)(=O)c2cc(Cl)cnc2O1` [Example 39, (3R)-3-(7-{[(4R)-8-Chloro-4-ethyl-1,1-dioxido-3,4-dihydro-2H-pyrido[2,3-b][1,4,5]oxathiazepin-2-yl]methyl}-2,3-dihydro-1H-inden-5-yl)-3-(7-cyclopropyl-1,4-dimethyl-1H-benzotriazol-5-yl)propanoic acid] were, in that order, 10 to 30 nM and 3 to 5.
In the same order, the values of `CC[C@@H]1CN(Cc2cc([C@H](CC(=O)O)c3cc(C4CC4)c4c(nnn4C)c3C)cc3c2CCC3)S(=O)(=O)c2cc(Cl)cnc2O1` [Example 40, (3S)-3-(7-{[(4R)-8-Chloro-4-ethyl-1,1-dioxido-3,4-dihydro-2H-pyrido[2,3-b][1,4,5]oxathiazepin-2-yl]methyl}-2,3-dihydro-1H-inden-5-yl)-3-(7-cyclopropyl-1,4-dimethyl-1H-benzotriazol-5-yl)propanoic acid] are 10 to 30 nM and 3 to 5.
Take `CC[C@@H]1CN(Cc2cc([C@H](CC(=O)O)c3cc(C4CC4)c4c(nnn4C)c3C)cc3ccsc23)S(=O)(=O)c2cc(Cl)cnc2O1` [Example 41, (3S)-3-(7-{[(4R)-8-Chloro-4-ethyl-1,1-dioxido-3,4-dihydro-2H-pyrido[2,3-b][1,4,5]oxathiazepin-2-yl]methyl}-1-benzothiophen-5-yl)-3-(7-cyclopropyl-1,4-dimethyl-1H-benzotriazol-5-yl)propanoic acid]: in assay [1], the IC50 was no more than 10 nM. Moreover, in assay [2], the fold induction at 0.4 µM is greater than 5.
In the same order, the values of `Cc1c([C@H](CC(=O)O)c2cc3c(c(CN4CC5(CC5)Oc5ncc(Cl)cc5S4(=O)=O)c2)CCC3)ccc2c1nnn2C` [Example 42, (3R)-3-{7-[(8′-Chloro-1′,1′-dioxido-spiro[cyclopropane-1,4′-pyrido[2,3-b][1,4,5]oxathiazepine]-2′(3′H)-yl)methyl]-2,3-dihydro-1H-inden-5-yl}-3-(1,4-dimethyl-1H-benzotriazol-5-yl)propanoic acid] are no more than 10 nM and greater than 5.
The like results for `Cc1c([C@@H](CC(=O)O)c2cc3c(c(CN4CC5(CC5)Oc5ncc(Cl)cc5S4(=O)=O)c2)CCC3)ccc2c1nnn2C` [Example 43, (3S)-3-{7-[(8′-Chloro-1′,1′-dioxido-spiro[cyclopropane-1,4′-pyrido[2,3-b][1,4,5]oxathiazepine]-2′(3′H)-yl)methyl]-2,3-dihydro-1H-inden-5-yl}-3-(1,4-dimethyl-1H-benzotriazol-5-yl)propanoic acid] were, in that order, no more than 10 nM and greater than 5.
The like results for `CC[C@@H]1CN(Cc2cc([C@@H](CC(=O)O)c3cc(C)c4c(nnn4C)c3C)cc3c2CCC3)S(=O)(=O)c2cc(Cl)cnc2O1` [Example 44, (3R)-3-(7-{[(4R)-8-Chloro-4-ethyl-1,1-dioxido-3,4-dihydro-2H-pyrido[2,3-b][1,4,5]oxathiazepin-2-yl]methyl}-2,3-dihydro-1H-inden-5-yl)-3-(1,4,7-trimethyl-1H-benzotriazol-5-yl)propanoic acid] were, in that order, no more than 10 nM and 3 to 5.
`CC[C@@H]1CN(Cc2cc([C@@H](CC(=O)O)c3cc(OC(F)(F)F)c4c(nnn4C)c3C)cc3ccsc23)S(=O)(=O)c2cc(Cl)cnc2O1` [Example 45, (3R)-3-(7-{[(4R)-8-Chloro-4-ethyl-1,1-dioxido-3,4-dihydro-2H-pyrido[2,3-b][1,4,5]oxathiazepin-2-yl]methyl}-1-benzothiophen-5-yl)-3-[1,4-dimethyl-7-(trifluoromethoxy)-1H-benzotriazol-5-yl]propanoic acid] returned an IC50 in assay [1] of no more than 10 nM. In assay [2], the fold induction at 0.4 µM was greater than 5.
In the same order, the values of `CC[C@@H]1CN(Cc2cc([C@H](CC(=O)O)c3cc(OC(F)(F)F)c4c(nnn4C)c3C)cc3ccsc23)S(=O)(=O)c2cc(Cl)cnc2O1` [Example 46, (3S)-3-(7-{[(4R)-8-Chloro-4-ethyl-1,1-dioxido-3,4-dihydro-2H-pyrido[2,3-b][1,4,5]oxathiazepin-2-yl]methyl}-1-benzothiophen-5-yl)-3-[1,4-dimethyl-7-(trifluoromethoxy)-1H-benzotriazol-5-yl]propanoic acid] are 10 to 30 nM and 3 to 5.
`CC[C@@H]1CN(Cc2cc([C@@H](CC(=O)O)c3ccc4c(nnn4C)c3C)cc3c2CCC3)S(=O)(=O)c2cc(C)cnc2O1` [Example 47, (3R)-3-(1,4-Dimethyl-1H-benzotriazol-5-yl)-3-(7-{[(4R)-4-ethyl-8-methyl-1,1-dioxido-3,4-dihydro-2H-pyrido[2,3-b][1,4,5]oxathiazepin-2-yl]methyl}-2,3-dihydro-1H-inden-5-yl)propanoic acid] came in with an IC50 in assay [1] of no more than 10 nM. The fold induction at 0.4 µM in assay [2] was 3 to 5.
In the same order, the values of `CC[C@@H]1CN(Cc2cc([C@@H](CC(=O)O)c3ccc4c(nnn4C)c3C)cc3c2CCC3)S(=O)(=O)c2cccc(Cl)c2O1` [Example 48, (3R)-3-(7-{[(4R)-6-Chloro-4-ethyl-1,1-dioxido-3,4-dihydro-2H-5,1,2-benzoxathiazepin-2-yl]methyl}-2,3-dihydro-1H-inden-5-yl)-3-(1,4-dimethyl-1H-benzotriazol-5-yl)propanoic acid] are no more than 10 nM and greater than 5.
In turn, `CC[C@@H]1CN(Cc2cc(C(CC(=O)O)c3cc(C4CC4)c4c(nnn4C)c3C)cc3ccsc23)S(=O)(=O)c2cc(Cl)cnc2O1` (stereo partly drawn) [Example 49, 3-(7-{[(4R)-8-Chloro-4-ethyl-1,1-dioxido-3,4-dihydro-2H-pyrido[2,3-b][1,4,5]oxathiazepin-2-yl]methyl}-1-benzothiophen-5-yl)-3-(7-cyclopropyl-1,4-dimethyl-1H-benzotriazol-5-yl)propanoic acid] came in with a half-inhibitory concentration (IC50) in assay [1] of 30 to 100 nM. In addition, the fold induction at 0.4 µM in assay [2] is greater than 5.
